Measurements published in article PMC3523469 (Investigational New Drugs, 2012).
Where two headings read alike, the source gives them in different places.

Type: in vivo, Japanese patients
[1] = across all dose levels, 13 patients

SMILES: COc1cc2ncnc(Nc3ccc(F)c(Cl)c3)c2cc1NC(=O)/C=C/CN1CCCCC1 [dacomitinib, Dacomitinib]
- Alanine aminotransferase increased, number of patients with treatment-related AE (45 mg QD (n = 7), G3): 1
- Aspartate aminotransferase increased, number of patients with treatment-related AE (45 mg QD (n = 7), G3): 1
- Blood bilirubin increased, number of patients with treatment-related AE (45 mg QD (n = 7), G3): 1
- Cheilitis, number of patients with treatment-related AE (45 mg QD (n = 7), G3): 0
- Conjunctivitis, number of patients with treatment-related AE (45 mg QD (n = 7), G3): 0
- Decreased appetite, number of patients with treatment-related AE (45 mg QD (n = 7), G3): 1
- Diarrhea, number of patients with treatment-related AE (45 mg QD (n = 7), G3): 0
- Dry skin, number of patients with treatment-related AE (45 mg QD (n = 7), G3): 0
- ECG QT prolonged, number of patients with treatment-related AE (45 mg QD (n = 7), G3): 0
- Edema, number of patients with treatment-related AE (45 mg QD (n = 7), G3): 0
- Fatigue, number of patients with treatment-related AE (45 mg QD (n = 7), G3): 0
- Hematuria, number of patients with treatment-related AE (45 mg QD (n = 7), G3): 0
- Hypertrichosis, number of patients with treatment-related AE (45 mg QD (n = 7), G3): 0
- Leukopenia, number of patients with treatment-related AE (45 mg QD (n = 7), G3): 0
- Nausea, number of patients with treatment-related AE (45 mg QD (n = 7), G3): 0
- Palmar–plantar erythrodysesthesia, number of patients with treatment-related AE (45 mg QD (n = 7), G3): 0
- Paronychia, number of patients with treatment-related AE (45 mg QD (n = 7), G3): 0
- Proteinuria, number of patients with treatment-related AE (45 mg QD (n = 7), G3): 0
- Rash, number of patients with treatment-related AE (45 mg QD (n = 7), G3): 2
- Skin fissures, number of patients with treatment-related AE (45 mg QD (n = 7), G3): 0
- Stomatitis, number of patients with treatment-related AE (45 mg QD (n = 7), G3): 0
- Weight decreased, number of patients with treatment-related AE (45 mg QD (n = 7), G3): 0
- device-related infection, treatment-related grade 3 AE, number (45 mg dosing cohort): 1
- treatment-related grade 3 AEs, number (45 mg dosing cohort): seven
- Dose-limiting toxicity (DLT) (15, 30, 45 mg QD, single dose to day 21 of cycle 1, 12 patients evaluated): no DLTs observed at any dose
- clinically recommended phase II dose (RP2D) (Japanese patients with advanced solid tumors): 45 mg QD
- Alanine aminotransferase increased, % of patients with treatment-related AE (Total (N = 13)): 15%
- Alanine aminotransferase increased, number of patients with treatment-related AE (Total (N = 13)): 2
- Aspartate aminotransferase increased, % of patients with treatment-related AE (Total (N = 13)): 15%
- Aspartate aminotransferase increased, number of patients with treatment-related AE (Total (N = 13)): 2
- Blood bilirubin increased, % of patients with treatment-related AE (Total (N = 13)): 15%
- Blood bilirubin increased, number of patients with treatment-related AE (Total (N = 13)): 2
- Cheilitis, % of patients with treatment-related AE (Total (N = 13)): 38%
- Cheilitis, number of patients with treatment-related AE (Total (N = 13)): 5
- Conjunctivitis, % of patients with treatment-related AE (Total (N = 13)): 31%
- Conjunctivitis, number of patients with treatment-related AE (Total (N = 13)): 4
- Decreased appetite, % of patients with treatment-related AE (Total (N = 13)): 23%
- Decreased appetite, number of patients with treatment-related AE (Total (N = 13)): 3
- Diarrhea, % of patients with treatment-related AE (Total (N = 13)): 92%
- Diarrhea, number of patients with treatment-related AE (Total (N = 13)): 12
- Dry skin, % of patients with treatment-related AE (Total (N = 13)): 61.5%
- Dry skin, number of patients with treatment-related AE (Total (N = 13)): 8
- ECG QT prolonged, % of patients with treatment-related AE (Total (N = 13)): 15%
- ECG QT prolonged, number of patients with treatment-related AE (Total (N = 13)): 2
- Edema, % of patients with treatment-related AE (Total (N = 13)): 15%
- Edema, number of patients with treatment-related AE (Total (N = 13)): 2
- Fatigue, % of patients with treatment-related AE (Total (N = 13)): 46%
- Fatigue, number of patients with treatment-related AE (Total (N = 13)): 6
- Hematuria, % of patients with treatment-related AE (Total (N = 13)): 15%
- Hematuria, number of patients with treatment-related AE (Total (N = 13)): 2
- Hypertrichosis, % of patients with treatment-related AE (Total (N = 13)): 15%
- Hypertrichosis, number of patients with treatment-related AE (Total (N = 13)): 2
- Leukopenia, % of patients with treatment-related AE (Total (N = 13)): 23%
- Leukopenia, number of patients with treatment-related AE (Total (N = 13)): 3
- Nausea, % of patients with treatment-related AE (Total (N = 13)): 23%
- Nausea, number of patients with treatment-related AE (Total (N = 13)): 3
- Palmar–plantar erythrodysesthesia, % of patients with treatment-related AE (Total (N = 13)): 38%
- Palmar–plantar erythrodysesthesia, number of patients with treatment-related AE (Total (N = 13)): 5
- Paronychia, % of patients with treatment-related AE (Total (N = 13)): 69%
- Paronychia, number of patients with treatment-related AE (Total (N = 13)): 9
- Proteinuria, % of patients with treatment-related AE (Total (N = 13)): 23%
- Proteinuria, number of patients with treatment-related AE (Total (N = 13)): 3
- Rash, % of patients with treatment-related AE (Total (N = 13)): 100%
- Rash, number of patients with treatment-related AE (Total (N = 13)): 13
- Skin fissures, % of patients with treatment-related AE (Total (N = 13)): 15%
- Skin fissures, number of patients with treatment-related AE (Total (N = 13)): 2
- Stomatitis, % of patients with treatment-related AE (Total (N = 13)): 61.5%
- Stomatitis, number of patients with treatment-related AE (Total (N = 13)): 8
- Weight decreased, % of patients with treatment-related AE (Total (N = 13)): 23%
- Weight decreased, number of patients with treatment-related AE (Total (N = 13)): 3
- diarrhea, all-causality AE, number of patients [1]: 12
- dry skin, all-causality AE, number of patients [1]: 8
- paronychia, all-causality AE, number of patients [1]: 9
- rash, all-causality AE, number of patients [1]: 13
- stomatitis, all-causality AE, number of patients [1]: 8
- grade 4 or 5 treatment-related adverse events (all cohorts, all cycles): ^aThere were no grade 4 or 5 treatment-related adverse events
- grade 4 AEs (all dose levels): No grade 4 AEs were reported
- patients requiring temporary discontinuations due to TRAEs, number (all in the 45 mg dosing cohort): five
- prolonged QTcF interval, change from baseline (one patient, 15 mg cohort, day 1 cycle 1, grade 1): 26 ms
- treatment-related grade 3 AEs, number (overall): eight
- AEs observed in ≥1 patient during the single-dose administration phase (single-dose administration phase): rash and diarrhea
